Like-named read-outs stand apart in the source and are kept apart here.
Assays:
HCT116 MTAP null cells = test: HCT116 MTAP null cell line proliferation (CellTiter-Glo cell viability, 6 days); format: cell-based; settings: HCT116 MTAP null cells, 6 days of treatment, CellTiter-Glo cell viability, read-out: HCT-116 MTAP null IC50
Procedure, shortened: (§1)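 Viability by CellTiter-Glo after 6 days' drug exposure in wild-type HCT116 and its MTAP-null knockout, with DMSO-only control. Dosing used either 1:3 steps (top 1 or 10 μM) or 22 points in 1:2 steps (top 10 or 50 μM). IC50 taken where the fitted curve crosses 50% of control.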

HCT116 WT cells = test: HCT116 WT cell line proliferation (CellTiter-Glo cell viability, 6 days); format: cell-based; settings: HCT116 WT (parent) cells, 6 days of treatment, CellTiter-Glo cell viability, read-out: HCT-116 WT IC50
Procedure, shortened: as §1

Work on `C[C@H]1OCc2c1c(N)nc1ccc(C(=O)N3CCOC[C@@H]3c3ccc(C(F)(F)C(F)(F)F)cc3)cc21` [Example 336, ((3R)-4-amino-3-methyl-1,3-dihydrofuro[3,4-c]quinolin-8-yl)((3S)-3-(4-(pentafluoroethyl)phenyl)-4-morpholinyl)methanone] yielded an IC50 (HCT116 MTAP null cells; HCT116-MTAP null, 144 h) of 0.039 µM and an IC50 (HCT116 WT cells; Homo sapiens, HCT-116, 144 h) of 1.62 µM.

In the case of `Cn1ncc2c3cc(C(=O)N4CCOC[C@@H]4c4ccc(OC(F)F)cn4)ccc3nc(N)c21` [Example 369, (4-amino-3-methyl-3H-pyrazolo[3,4-c]quinolin-8-yl)((3S)-3-(5-(difluoromethoxy)-2-pyridinyl)-4-morpholinyl)methanone], the IC50 (HCT116 MTAP null cells; HCT116-MTAP null, 144 h) is reported as 0.34 µM and the IC50 (HCT116 WT cells; Homo sapiens, HCT-116, 144 h) is reported as 15.4 µM.

Work on `C[C@@H]1COC[C@H](c2ccc(C(F)(F)F)cn2)N1C(=O)c1ccc2nc(N)c3c(cnn3C)c2c1` [Example 370, (4-amino-3-methyl-3H-pyrazolo[3,4-c]quinolin-8-yl)((3R,5S)-3-methyl-5-(5-(trifluoromethyl)-2-pyridinyl)-4-morpholinyl)methanone] yielded an IC50 (HCT116 MTAP null cells; HCT116-MTAP null, 144 h) of 0.03 µM and an IC50 (HCT116 WT cells; Homo sapiens, HCT-116, 144 h) of 2.02 µM.

`Cn1ncc2c(N)nc3cnc(C(=O)N4CCOC[C@@H]4c4ccc(C(F)(F)F)cc4)cc3c21` [Example 371, (4-amino-1-methyl-1H-pyrazolo[4,3-c][1,7]naphthyridin-8-yl)((3S)-3-(4-(trifluoromethyl)phenyl)-4-morpholinyl)methanone] showed an IC50 (HCT116 MTAP null cells; HCT116-MTAP null, 144 h) of 0.022 µM and an IC50 (HCT116 WT cells; Homo sapiens, HCT-116, 144 h) of 0.707 µM.

Work on `CC1(C)OCc2c1c(N)nc1ccc(C(=O)N3CCOC[C@@H]3c3ccc(OC(F)(F)F)cc3)cc21` [Example 382, (4-amino-3,3-dimethyl-1H-furo[3,4-c]quinolin-8-yl)-[(3S)-3-[4-(trifluoromethoxy)phenyl]morpholin-4-yl]methanone] yielded an IC50 (HCT116 MTAP null cells; HCT116-MTAP null, 144 h) of 0.786 µM and an IC50 (HCT116 WT cells; Homo sapiens, HCT-116, 144 h) of over 10 µM.

For `Nc1nc2cnc(C(=O)N3CCOC[C@@H]3c3ccc(OC(F)F)nc3)cc2c2c1COC2.Nc1nc2cnc(C(=O)N3CCOC[C@H]3c3ccc(OC(F)F)nc3)cc2c2c1COC2` [Example 394, (4-amino-1,3-dihydrofuro[3,4-c][1,7]naphthyridin-8-yl)((3R)-3-(6-(difluoromethoxy)-3-pyridinyl)-4-morpholinyl)methanone (4-amino-1,3-dihydrofuro[3,4-c][1,7]naphthyridin-8-yl)((3S)-3-(6-(difluoromethoxy)-3-pyridinyl)-4-morpholinyl)methanone], the IC50 (HCT116 MTAP null cells) was 0.624 µM and the IC50 (HCT116 WT cells) was 36.4 µM.

`C[C@H]1OCc2c1c(N)nc1ccc(C(=O)N3CC(c4ccccc4)C4CCCC43)cc21` (stereo partly drawn) [Example 395, ((3R)-4-amino-3-methyl-1,3-dihydrofuro[3,4-c]quinolin-8-yl)(3-phenylhexahydrocyclopenta[b]pyrrol-1(2H)-yl)methanone] gave an IC50 (HCT116 MTAP null cells; HCT116-MTAP null, 144 h) of 0.303 µM and an IC50 (HCT116 WT cells; Homo sapiens, HCT-116, 144 h) of 8.24 µM.

In the case of `C[C@H]1OCc2c1c(N)nc1ccc(C(=O)N3CC(c4ccc(Cl)cc4)CC3C3CC3)cc21` (stereo partly drawn) [Example 396, ((3R)-4-amino-3-methyl-1,3-dihydrofuro[3,4-c]quinolin-8-yl)(4-(4-chlorophenyl)-2-cyclopropylpyrrolidin-1-yl)methanone], the IC50 (HCT116 MTAP null cells; HCT116-MTAP null, 144 h) is reported as 0.866 µM and the IC50 (HCT116 WT cells; Homo sapiens, HCT-116, 144 h) is reported as 13.3 µM.

For `C[C@H]1OCc2c1c(N)nc1ccc(C(=O)N3CC(c4ccccc4)C4COCCC43)cc21` (stereo partly drawn) [Example 397, ((3R)-4-amino-3-methyl-1,3-dihydrofuro[3,4-c]quinolin-8-yl)(3-phenylhexahydropyrano[4,3-b]pyrrol-1(4H)-yl)methanone], the IC50 (HCT116 MTAP null cells; HCT116-MTAP null, 144 h) was 0.38 µM and the IC50 (HCT116 WT cells; Homo sapiens, HCT-116, 144 h) was 32 µM.

Work on `C[C@H]1OCc2c1c(N)nc1ccc(C(=O)N3C[C@H](c4ccc(Cl)cc4)C[C@H]3C3CC3)cc21` [Example 398, ((3R)-4-amino-3-methyl-1,3-dihydrofuro[3,4-c]quinolin-8-yl)((2S,4S)-4-(4-chlorophenyl)-2-cyclopropyl-1-pyrrolidinyl)methanone] yielded an IC50 (HCT116 MTAP null cells; HCT116-MTAP null, 144 h) of 0.609 µM and an IC50 (HCT116 WT cells; Homo sapiens, HCT-116, 144 h) of 13.2 µM.

`C[C@H]1OCc2c1c(N)nc1ccc(C(=O)N3C[C@@H](c4ccccc4)[C@@H]4COCC[C@@H]43)cc21` [Example 399, ((3R)-4-amino-3-methyl-1,3-dihydrofuro[3,4-c]quinolin-8-yl)((3R,3aS,7aS)-3-phenylhexahydropyrano[4,3-b]pyrrol-1(4H)-yl)methanone] was tested, and the IC50 (HCT116 MTAP null cells; HCT116-MTAP null, 144 h) was 0.197 µM and the IC50 (HCT116 WT cells; Homo sapiens, HCT-116, 144 h) was 13.1 µM.

For `C[C@H]1OCc2c1c(N)nc1ccc(C(=O)N3C[C@@H](c4ccccc4)[C@@H]4CCC[C@@H]43)cc21` [Example 400, ((3R)-4-amino-3-methyl-1,3-dihydrofuro[3,4-c]quinolin-8-yl)((3R,3aS,6aS)-3-phenylhexahydrocyclopenta[b]pyrrol-1(2H)-yl)methanone], the IC50 (HCT116 MTAP null cells; HCT116-MTAP null, 144 h) was 0.159 µM and the IC50 (HCT116 WT cells; Homo sapiens, HCT-116, 144 h) was 7 µM.

With `C[C@H]1OCc2c1c(N)nc1ccc(C(=O)N3C[C@H](c4ccccc4)[C@H]4CCC[C@@H]43)cc21` [Example 401, ((3R)-4-amino-3-methyl-1,3-dihydrofuro[3,4-c]quinolin-8-yl)((3S,3aR,6aS)-3-phenylhexahydrocyclopenta[b]pyrrol-1(2H)-yl)methanone] the IC50 (HCT116 MTAP null cells; HCT116-MTAP null, 144 h) was 0.677 µM and the IC50 (HCT116 WT cells; Homo sapiens, HCT-116, 144 h) was 17.6 µM.

`CC1CN(C(=O)c2ccc3nc(N)c4c(c3c2)CO[C@@H]4C)CC1c1ccc(Br)cc1` (stereo partly drawn) [Example 402, ((3R)-4-amino-3-methyl-1,3-dihydrofuro[3,4-c]quinolin-8-yl)(3-(4-bromophenyl)-4-methylpyrrolidin-1-yl)methanone] gave an IC50 (HCT116 MTAP null cells; HCT116-MTAP null, 144 h) of 0.833 µM and an IC50 (HCT116 WT cells; Homo sapiens, HCT-116, 144 h) of 13.3 µM.

`Nc1nc2ccc(C(=O)N3CCOC[C@@H]3c3ccc(C(F)(F)F)cc3)cc2n2ccnc12` [Example 403, (4-aminoimidazo[1,2-a]quinoxalin-8-yl)((3S)-3-(4-(trifluoromethyl)phenyl)-4-morpholinyl)methanone] showed an IC50 (HCT116 MTAP null cells; HCT116-MTAP null, 144 h) of 0.765 µM and an IC50 (HCT116 WT cells; Homo sapiens, HCT-116, 144 h) of 0.673 µM.

With `Nc1nc2cnc(C(=O)N3CCOC[C@@H]3c3ccc(C(F)(F)F)cc3)cc2c2c1CCO2` [Example 404, (4-amino-2,3-dihydrofuro[3,2-c][1,7]naphthyridin-8-yl)((3S)-3-(4-(trifluoromethyl)phenyl)-4-morpholinyl)methanone] the IC50 (HCT116 MTAP null cells; HCT116-MTAP null, 144 h) was 0.872 µM and the IC50 (HCT116 WT cells; Homo sapiens, HCT-116, 144 h) was 9.76 µM.

`Cc1n[nH]c2c1c(N)nc1ccc(C(=O)N3CCOC[C@@H]3c3ccc(C(F)(F)F)cc3)cc12` [Example 405, (4-amino-3-methyl-1H-pyrazolo[4,3-d]quinolin-8-yl)((3S)-3-(4-(trifluoromethyl)phenyl)-4-morpholinyl)methanone] showed an IC50 (HCT116 MTAP null cells; HCT116-MTAP null, 144 h) of 0.181 µM and an IC50 (HCT116 WT cells; Homo sapiens, HCT-116, 144 h) of 2.7 µM.

`Cc1n[nH]c2c1c(N)nc1cnc(C(=O)N3CCOC[C@@H]3c3ccc(C(F)(F)F)cc3)cc12` [Example 406, (4-amino-3-methyl-1H-pyrazolo[4,3-c][1,7]naphthyridin-8-yl)((3S)-3-(4-(trifluoromethyl)phenyl)-4-morpholinyl)methanone] showed an IC50 (HCT116 MTAP null cells; HCT116-MTAP null, 144 h) of 0.155 µM and an IC50 (HCT116 WT cells; Homo sapiens, HCT-116, 144 h) of 5.64 µM.

`Nc1nc2cc(F)c(C(=O)N3CCOC[C@@H]3c3ccc(C(F)(F)F)cc3)cc2c2c1CCO2` [Example 407, (4-amino-7-fluoro-2,3-dihydrofuro[3,2-c]quinolin-8-yl)((3S)-3-(4-(trifluoromethyl)phenyl)-4-morpholinyl)methanone] showed an IC50 (HCT116 MTAP null cells; HCT116-MTAP null, 144 h) of 0.416 µM and an IC50 (HCT116 WT cells; Homo sapiens, HCT-116, 144 h) of 4.21 µM.

In the case of `Cn1ncc2c(N)nc3ccc(C(=O)N4CC(c5ccc(C(F)(F)F)cc5)C4)cc3c21` [Example 408, (4-amino-1-methyl-1H-pyrazolo[4,3-c]quinolin-8-yl)(3-(4-(trifluoromethyl)phenyl)-1-azetidinyl)methanone], the IC50 (HCT116 MTAP null cells; HCT116-MTAP null, 144 h) is reported as 0.118 µM and the IC50 (HCT116 WT cells; Homo sapiens, HCT-116, 144 h) is reported as 6.36 µM.

`Cn1ncc2c(N)nc3ccc(C(=O)N4CCOC[C@@H]4c4ccc(C(F)(F)C(F)(F)F)cc4)cc3c21` [Example 409, (4-amino-1-methyl-1H-pyrazolo[4,3-c]quinolin-8-yl)((3S)-3-(4-(pentafluoroethyl)phenyl)-4-morpholinyl)methanone] was tested, and the IC50 (HCT116 MTAP null cells; HCT116-MTAP null, 144 h) was 0.029 µM and the IC50 (HCT116 WT cells; Homo sapiens, HCT-116, 144 h) was 1.67 µM.

Compound `Cn1ncc2c(N)nc3cnc(C(=O)N4CCOC[C@@H]4c4ccc(C(F)(F)C(F)(F)F)cc4)cc3c21` [Example 410, (4-amino-1-methyl-1H-pyrazolo[4,3-c][1,7]naphthyridin-8-yl)((3S)-3-(4-(pentafluoroethyl)phenyl)-4-morpholinyl)methanone] has an IC50 (HCT116 MTAP null cells; HCT116-MTAP null, 144 h) of 0.015 µM and an IC50 (HCT116 WT cells; Homo sapiens, HCT-116, 144 h) of 0.444 µM.

With `Cn1ncc2c(N)nc3cc(F)c(C(=O)N4CCOC[C@@H]4c4ccc(C(F)(F)C(F)(F)F)cc4)cc3c21` [Example 411, (4-amino-7-fluoro-1-methyl-1H-pyrazolo[4,3-c]quinolin-8-yl)((3S)-3-(4-(pentafluoroethyl)phenyl)-4-morpholinyl)methanone] the IC50 (HCT116 MTAP null cells; HCT116-MTAP null, 144 h) was 0.008 µM and the IC50 (HCT116 WT cells; Homo sapiens, HCT-116, 144 h) was 0.352 µM.

`Cc1cc2nc(N)c3cnn(C)c3c2cc1C(=O)N1CCOC[C@@H]1c1ccc(C(F)(F)F)cc1` [Example 413, (4-amino-1,7-dimethyl-1H-pyrazolo[4,3-c]quinolin-8-yl)((3S)-3-(4-(trifluoromethyl)phenyl)-4-morpholinyl)methanone] gave an IC50 (HCT116 MTAP null cells; HCT116-MTAP null, 144 h) of 0.022 µM and an IC50 (HCT116 WT cells; Homo sapiens, HCT-116, 144 h) of 0.413 µM.

For `Cc1cc2nc(N)c3c(cnn3C)c2cc1C(=O)N1CCOC[C@@H]1c1ccc(C(F)(F)F)cc1` [Example 414, (4-amino-3,7-dimethyl-3H-pyrazolo[3,4-c]quinolin-8-yl)((3S)-3-(4-(trifluoromethyl)phenyl)-4-morpholinyl)methanone], the IC50 (HCT116 MTAP null cells; HCT116-MTAP null, 144 h) was 0.056 µM and the IC50 (HCT116 WT cells; Homo sapiens, HCT-116, 144 h) was 2.8 µM.

For `Cc1nc2nc(N)c3cnn(C)c3c2cc1C(=O)N1CCOC[C@@H]1c1ccc(C(F)(F)F)cc1` [Example 415, (4-amino-1,7-dimethyl-1H-pyrazolo[4,3-c][1,8]naphthyridin-8-yl)((3S)-3-(4-(trifluoromethyl)phenyl)-4-morpholinyl)methanone], the IC50 (HCT116 MTAP null cells; HCT116-MTAP null, 144 h) was 0.073 µM and the IC50 (HCT116 WT cells; Homo sapiens, HCT-116, 144 h) was 3.34 µM.

With `C[C@H]1OCc2c1c(N)nc1ccc(C(=O)N3CCOC[C@@H]3c3ccc(S(F)(F)(F)(F)F)cc3)cc21` [Example 416, ((3R)-4-amino-3-methyl-1,3-dihydrofuro[3,4-c]quinolin-8-yl)((3S)-3-(4-(pentafluoro-lambda~6~-sulfanyl)phenyl)-4-morpholinyl)methanone] the IC50 (HCT116 MTAP null cells; HCT116-MTAP null, 144 h) was 0.033 µM and the IC50 (HCT116 WT cells; Homo sapiens, HCT-116, 144 h) was 0.867 µM.

Reference: patent US11845760B2, “PRMT5 inhibitors” (AMGEN INC., priority 2020, dated 2023)
